From PMC12533185 (Nature Communications, 2025)

Assays:
Col2α1 mRNA = Col2α1 mRNA expression in ATDC5 cells; type: cell-based, mouse; details: 10 μg/ml recombinant insulin, 7 days
[1] = tested on: mechanical loading PTOA mice; assay: Micro-CT: osteophyte size in PTOA mice; type: in vivo, mouse
[2] = tested on: mechanical loading PTOA mice; assay: OARSI score in PTOA mice; type: in vivo, mouse
[3] = tested on: mechanical loading PTOA mice; assay: Joint histology; type: in vivo, mouse; details: six weeks
[4] = tested on: mechanical loading PTOA mice; assay: Walking speed in PTOA mice; type: in vivo, mouse; details: after six weeks, MP 4 mg/kg weekly

insulin: recombinant insulin used to induce chondrogenesis of ATDC5 cells
increase of Col2α1 expression (Col2α1 mRNA): ~ 10 fold

C[C@H]1C[C@@H]2[C@H]([C@@H](O)C[C@@]3(C)[C@H]2CC[C@]3(O)C(=O)CO)[C@@]2(C)C=CC(=O)C=C12 [MP, methylprednisolone]
block of osteophytes formation and ectopic mineralization [1]: Neither MP nor si-VPN-2 could significantly block osteophytes formation and ectopic mineralization
OARSI score relative to MP&si-VPN@HA [2]: 5.67 fold
joint histology [3]: large proteoglycan loss and cartilage erosion
walking speed, % of initial level [4]: 18.22%
